# Laboratory results reported in patent publication US9701670B2, “Pyrazolyl-ureas as kinase inhibitors” (RESPIVERT LIMITED, priority 2013, dated 2017).
# Assays:
# [1] = test system: Intestinal mucosa biopsies from the inflamed regions of the colon of IBD patients; assay: (h) Human biopsy assay (cytokine release); assay type: cell-based
# Description: Intestinal mucosa biopsies are obtained from the inflamed regions of the colon of IBD patients. The biopsy material is cut into small pieces (2-3 mm) and placed on steel grids in an organ culture chamber at 37° C. in a 5% CO2/95% O2 atmosphere in serum-free media. DMSO control or test compounds at the desired concentration are added to the tissue and incubated for 24 hr in the organ culture chamber. The supernatant is harvested for determination of IL-6, IL-8, […] and TNFα levels by R&D ELISA.
# [2] = Cryopreserved hepatocyte stability; assay type: in vitro ADME; conditions: scaled from intrinsic clearance, mean of two experiments
# Description: (§1) Formulae CIint(tissue clearance) mL/min/kg=[0.693/t½(min)]×[1/microsomal protein concentration mg/mL]×[mg microsomes/g liver]×[g liver/kg body weight] […] The incubations were performed at 37° C. with 100 μL samples taken from the incubation, at 0, 10, 20, 45 and 90 minutes, and reactions terminated by addition of 100 μL of acetonitrile containing carbamazepine as analytical internal standard. […] Half-life values were calculated from the relationship T1/2(min)=−0.693/λ • where λ was the slope of the Ln concentration vs time curve. • Standard compounds testosterone, midazolam and 4-methylumbelliferone are included in the assay design.
# CIint(Tissue Clearance) mL/min/kg=[0.693/t½(min)]×[1/hepatocyte concentration (million cells/mL)]×[million cells/g liver]×[g liver/kg body weight] CIint(Hepatic clearance) mL/min/kg=hepatic blood flow×CIint/(hepatic blood flow+CIint) Hepatic extraction ratio (Eh)=CIint(Hepatic clearance) mL/min/kg/hepatic blood flow (mL/min/kg)
# [3] = Hepatic microsomal stability; assay type: in vitro ADME; conditions: scaled from intrinsic clearance, mean of two experiments
# Description: • Microsomal stability assays were performed with incubations of test compounds at 0.1 μM (n=2, final DMSO concentration 0.25%), and carried out using pooled human, dog and rat hepatic microsomes from Xenotech (Lots 1210153, 0810143 and 1110042, respectively) at 0.25 mg protein/mL in the presence of co-factor, NADPH. The incubations were performed at 37° C. with 100 μL aliquots taken from the incubation, at 0, 2, 5, 10 and 20 minutes and reactions terminated by addition of 100 μL of acetonitrile containing carbamazepine as analytical internal standard. […] Half-life values were calculated from the relationship T1/2(min)=−0.693/λ • where λ was the slope of the Ln concentration vs time curve. • The in vitro intrinsic clearance, CIint (mL/min/kg), was calculated and scaled to hepatic extraction ratios using the following scaling parameters and formulae.
# as §1
# [4] = Plasma pharmacokinetics in beagle dogs; assay type: in vivo, male beagle dogs; conditions: Dog
# Description: A study was conducted by Sai Life Sciences (Hinjewadi, Pune, India) to investigate the plasma pharmacokinetics of the compound of Example 77 in male beagle dogs following a single intravenous or oral administration.
# A group of three male beagle dogs were administered orally with an aqueous suspension formulation (having 2% HPMC and 0.5% Tween 80) of the compound of Example 77, at a dose of 1 mg/kg. In addition, a group of three male beagle dogs were administered intravenously with a solution formulation (in 5% v/v DMSO, 7.5% w/v Solutol HS 15 and 87.5% saline (0.9% w/v NaCl)) of the compound of Example 77, at a dose of 0.05 mg/kg. Blood samples (approximately 1.5 mL) were collected from jugular vein such that the samples were obtained at pre-dose, 0.25, 0.5, 1, 2, 4, 6, 8, and 24 hr (p.o.) and pre-dose, 0.08, 0.25, 0.5, 1, 2, 4, 8, 12, 24 and 32 hr (i.v.) post dose. The blood samples were collected from a set of three dogs at each time point in labelled micro centrifuge tube containing K2EDTA as anticoagulant. Plasma samples were separated by centrifugation at 2500 g for 10 min of whole blood and stored below −70° C. until bioanalysis. All samples were processed for analysis by protein precipitation using acetonitrile and analyzed with LC-MS/MS method (LLOQ=0.50 ng/mL). Pharmacokinetic parameters were calculated using the non-compartmental analysis tool of Phoenix WinNonlin® (Version 6.3).
# B-Raf = B-Raf (Homo sapiens (Human), UniProt P15056); assay: Enzyme binding assay (Kinomescan)
# B-Raf, sequence (P15056 whole entry): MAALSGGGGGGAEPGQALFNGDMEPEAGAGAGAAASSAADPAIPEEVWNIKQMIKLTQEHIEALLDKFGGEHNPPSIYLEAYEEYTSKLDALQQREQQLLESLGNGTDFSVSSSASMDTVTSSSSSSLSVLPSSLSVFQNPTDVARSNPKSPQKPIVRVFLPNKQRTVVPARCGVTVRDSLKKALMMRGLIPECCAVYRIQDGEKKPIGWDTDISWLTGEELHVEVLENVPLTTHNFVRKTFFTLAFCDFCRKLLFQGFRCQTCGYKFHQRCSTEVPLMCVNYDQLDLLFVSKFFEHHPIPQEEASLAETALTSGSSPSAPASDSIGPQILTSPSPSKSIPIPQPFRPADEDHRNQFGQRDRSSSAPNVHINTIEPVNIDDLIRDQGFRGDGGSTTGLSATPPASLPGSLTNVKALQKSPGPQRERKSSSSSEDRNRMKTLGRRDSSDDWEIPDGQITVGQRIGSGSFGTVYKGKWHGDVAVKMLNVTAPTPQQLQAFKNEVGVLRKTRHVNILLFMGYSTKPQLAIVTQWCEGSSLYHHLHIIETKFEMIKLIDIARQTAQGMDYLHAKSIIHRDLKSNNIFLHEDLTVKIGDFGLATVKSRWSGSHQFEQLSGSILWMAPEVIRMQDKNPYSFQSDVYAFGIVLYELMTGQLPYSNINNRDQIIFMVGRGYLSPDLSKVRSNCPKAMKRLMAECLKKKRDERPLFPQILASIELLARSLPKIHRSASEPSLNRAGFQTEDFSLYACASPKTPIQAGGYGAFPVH
# Description: The kinase enzyme binding activities of compounds disclosed herein were determined using a proprietary assay which measures active site-directed competition binding to an immobilized ligand (Fabian, M. A. et al., Nature Biotechnol., 2005, 23:329-336). These assays were conducted by DiscoverX (formerly Ambit; San Diego, Calif.). The percentage inhibition produced by incubation with a test compound is calculated relative to the non-inhibited control.
# [5] = biological target: p38 MAPKα isoform (MAPK14) (Homo sapiens (Human), UniProt Q16539); assay: p38 MAPKα enzyme inhibition (FRET, Z-LYTE), Method 2; assay type: biochemical; conditions: Method 2, different laboratory (Table 4a2)
# p38 MAPKα isoform (MAPK14), sequence (Q16539 whole entry, canonical isoform): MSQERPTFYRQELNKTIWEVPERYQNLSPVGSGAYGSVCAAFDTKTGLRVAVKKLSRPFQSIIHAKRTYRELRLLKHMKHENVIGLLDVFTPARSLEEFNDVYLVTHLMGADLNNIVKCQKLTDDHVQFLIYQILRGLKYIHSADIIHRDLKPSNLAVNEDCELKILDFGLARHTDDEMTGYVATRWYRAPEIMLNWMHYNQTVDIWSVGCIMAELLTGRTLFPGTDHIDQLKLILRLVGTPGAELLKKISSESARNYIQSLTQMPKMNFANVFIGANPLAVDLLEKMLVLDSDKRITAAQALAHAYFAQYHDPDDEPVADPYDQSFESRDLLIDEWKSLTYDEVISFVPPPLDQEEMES
# [6] = test system: 71 receptors and 26 enzymes; assay: Diversity Profile (Cerep); assay type: binding; conditions: 300 nM
# Description: Studies were conducted by Cerep (Celle-Lévescault, France) to investigate the binding of the compound of Example 77 to a diverse selection of receptors and to investigate either the inhibition or activation of a selection of enzymes (the “Diversity Profile” comprising a total of 71 receptors and 26 enzymes).
# [7] = male, beagle, plasma, intravenous 0.05 mg/kg
compound,measurement,setting,value
"C#Cc1cc(Nc2nccc(Oc3ccc(NC(=O)Nc4cc(C(C)(C)C)nn4-c4ccc(OC)cc4)c4ccccc34)n2)cc(C(=O)NCCN2CCOCC2)c1 [Example 77, 3-((4-((4-(3-(3-(tert-Butyl)-1-(4-methoxyphenyl)-1H-pyrazol-5-yl)ureido)-naphthalen-1-yl)oxy)pyrimidin-2-yl)amino)-5-ethynyl-N-(2-morpholinoethyl)benzamide]",Cytokine release from biopsies of UC patients IL-1b release,"[1]; 1 μg/mL, DMSO control 100%",26 ± 16%
same,Cytokine release from biopsies of UC patients IL-6 release,"[1]; 1 μg/mL, DMSO control 100%",67 ± 128%
same,Cytokine release from biopsies of UC patients IL-8 release,"[1]; 1 μg/mL, DMSO control 100%",36 ± 117%
same,cytokine release from biopsies from ulcerative colitis (UC) patients,[1]; added to biopsies in vitro,"markedly reduced IL-1b, IL-6 and IL-8 release"
same,Mean hepatic extraction ratio (Eh),[2]; dog hepatocytes,0.87
same,Mean hepatic extraction ratio (Eh),[2]; human hepatocytes,0.69
same,Mean hepatic extraction ratio (Eh),[2]; rat hepatocytes,0.55
same,Mean hepatic extraction ratio (Eh),[3]; dog hepatic microsomes,0.94
same,Mean hepatic extraction ratio (Eh),[3]; rat hepatic microsomes,0.82
same,plasma exposure after oral administration,[4]; 1 mg/kg p.o.,no plasma exposure at all was observed
same,Fpo,"[4]; 1 mg/kg p.o., Plasma",0%
same,AUC(0-inf),[4]; [7],37 ng·h/mL
same,AUC(0-t),[4]; [7],33.6 ng·h/mL
same,C0,[4]; [7],283 ng/mL
same,Vd,[4]; [7],1.8 L/kg
same,clearance,[4]; [7],25.4 mL/min/kg
same,half-life,[4]; [7],2.5 h
same,effect on the binding of the kinase B-Raf to its standard ligand,B-Raf,did not have any effect
same,IC50,[5],22 nM
same,inhibition of the control specific binding in the receptor binding assays or enzyme assays,[6],less than 25%
